Laboratory results as given in ChEMBL document CHEMBL6078657, “Thiazolidinedione-based structure modification of ergosterol peroxide provides thiazolidinedione-conjugated derivatives as potent agents against breast cancer cells through a PI3K/AKT/mTOR pathway” (Bioorg Med Chem, 2025).
Active and inactive are the calls of the source. The rule behind the calls is not given here.

Legend:
MCF7 [1] = test: Growth inhibition of human MCF7 cells assessed as ruptured membrane and shrunken nucleus at 1 to 6 uM incubated up to 48 hrs by acridine orange/ethidium bromide (AO/EB) staining based assay; type: functional, cell-based; settings: dose 1-6 µM
MCF7 [2] = test: Induction of apoptosis in human MCF7 cells assessed as early apoptotic cells at 1 uM measured after 48 hrs incubation by Annexin V-FITC/PI double staining assay (reference value: 5.73%); type: functional
MCF7 [3] = test: Induction of apoptosis in human MCF7 cells assessed as late apoptotic cells at 1 uM measured after 48 hrs incubation by Annexin V-FITC/PI double staining assay (reference value: 0.68%); type: functional
MCF7 [4] = test: Induction of apoptosis in human MCF7 cells assessed as viable cells at 3 uM measured after 48 hrs incubation by Annexin V-FITC/PI double staining assay (reference value: 92.8%); type: functional; settings: read-out: Activity
MCF7 [5] = test: Induction of apoptosis in human MCF7 cells assessed as late apoptotic cells at 6 uM measured after 48 hrs incubation by Annexin V-FITC/PI double staining assay (reference value: 0.68%); type: functional
MCF7 [6] = test: Inhibition of phosphorylation of PI3K in human MCF7 cells measured after 48 hrs by Western blot analysis; type: cell-based; settings: dose 1-6 µM
HepG2 = test: Antiproliferative activity against human HepG2 cells assessed as cell viability measured after 48 hrs incubation by MTT assay; type: functional, cell-based; settings: HepG2, 48 h
4T1 [7] = test: In vivo antitumor activity against mouse 4T1 cells transfected in BALB/c mouse assessed as tumor growth inhibition at 30 mg/kg, ip daily for 14 consecutive days relative to control; type: functional; settings: 4T1, 336 h, time 14 day, read-out: TGI
[8] = Antiproliferative activity against human MCF-10A cells assessed as cell viability measured after 48 hrs incubation by MTT assay; type: toxicity, cell-based
[9] = Toxicity in healthy BALB/c mouse assessed as pathological changes in liver at 20 mg/kg, ip daily for 14 consecutive days by HE staining based assay; type: organism-based; settings: in vivo, 336 h, time 14 day
MCF7 [10] = test: Induction of cell cycle arrest in human MCF7 cells assessed as accumulation of cells at S phase at 3 uM measured after 48 hrs by PI staining based flow cytometry analysis (reference value: 24.67%); type: functional
MCF7 [11] = test: Induction of apoptosis in human MCF7 cells assessed as early apoptotic cells at 6 uM measured after 48 hrs incubation by Annexin V-FITC/PI double staining assay (reference value: 5.73%); type: functional
MCF7 [12] = test: Induction of cell cycle arrest in human MCF7 cells assessed as accumulation of cells at G2/M phase at 1 uM measured after 48 hrs by PI staining based flow cytometry analysis (reference value: 16.91%); type: functional
MCF7 [13] = test: Induction of apoptosis in human MCF7 cells assessed as necrotic cells at 6 uM measured after 48 hrs incubation by Annexin V-FITC/PI double staining assay (reference value: 0.77%); type: functional
MCF7 [14] = test: Induction of apoptosis in human MCF7 cells assessed as viable cells at 1 uM measured after 48 hrs incubation by Annexin V-FITC/PI double staining assay (reference value: 92.8%); type: functional; settings: read-out: Activity
[15] = biological target: Serine/threonine-protein kinase mTOR (Homo sapiens) (UniProt P42345); test: Inhibition of phosphorylation of mTOR in human MCF7 cells measured after 48 hrs by Western blot analysis; type: cell-based; settings: dose 1-6 µM
MCF7 [16] = test: Induction of apoptosis in human MCF7 cells assessed as decrease in mitochondrial membrane potential by measuring increase in JC-1 monomer (green fluorescence) at 3 uM incubated for 48 hrs by JC-1 staining based flow cytometry analysis (reference value: 2.96%); type: functional; design: scale not given: the % may be the effect or the level left
[17] = Toxicity in healthy BALB/c mouse assessed as pathological changes in spleen at 40 mg/kg, ip daily for 14 consecutive days by HE staining based assay; type: organism-based; settings: in vivo, 336 h, time 14 day
MCF7 [18] = test: Antiproliferative activity against human MCF7 cells assessed as cell viability measured after 48 hrs incubation by MTT assay; type: functional, cell-based; settings: MCF7, 48 h
[19] = Toxicity in healthy BALB/c mouse assessed as pathological changes in liver at 40 mg/kg, ip daily for 14 consecutive days by HE staining based assay; type: organism-based; settings: in vivo, 336 h, time 14 day
MCF7 [20] = test: Induction of apoptosis in human MCF7 cells assessed as viable cells at 6 uM measured after 48 hrs incubation by Annexin V-FITC/PI double staining assay (reference value: 92.8%); type: functional; settings: read-out: Activity
[21] = Toxicity in healthy BALB/c mouse assessed as pathological changes in spleen at 20 mg/kg, ip daily for 14 consecutive days by HE staining based assay; type: organism-based; settings: in vivo, 336 h, time 14 day
MCF7 [22] = test: Induction of apoptosis in human MCF7 cells assessed as decrease in mitochondrial membrane potential by measuring increase in JC-1 monomer (green fluorescence) at 1 uM incubated for 48 hrs by JC-1 staining based flow cytometry analysis (reference value: 2.96%); type: functional; design: scale not given: the % may be the effect or the level left
MCF7 [23] = test: Induction of cell cycle arrest in human MCF7 cells assessed as accumulation of cells at G2/M phase at 3 uM measured after 48 hrs by PI staining based flow cytometry analysis (reference value: 16.91%); type: functional
MCF7 [24] = test: Induction of apoptosis in human MCF7 cells assessed as decrease in mitochondrial membrane potential by measuring increase in JC-1 monomer (green fluorescence) incubated for 48 hrs by JC-1 staining based flow cytometry analysis; type: functional, cell-based; settings: dose 1-6 µM
4T1 [25] = test: In vivo antitumor activity against mouse 4T1 cells transfected in BALB/c mouse assessed as tumor growth inhibition at 15 mg/kg, ip daily for 14 consecutive days relative to control; type: functional; settings: 4T1, 336 h, time 14 day, read-out: TGI
MCF7 [26] = test: Induction of apoptosis in human MCF7 cells assessed as necrotic cells at 1 uM measured after 48 hrs incubation by Annexin V-FITC/PI double staining assay (reference value: 0.77%); type: functional
[27] = Toxicity in healthy BALB/c mouse assessed as pathological changes in kidney at 40 mg/kg, ip daily for 14 consecutive days by HE staining based assay; type: organism-based; settings: in vivo
MCF7 [28] = test: Induction of apoptosis in human MCF7 cells assessed as increase in ROS production by measuring bright green fluorescence measured after 48 hrs incubation by DCFH-DA staining based flow cytometry assay; type: functional, cell-based; settings: dose 1-6 µM
[29] = Toxicity in healthy BALB/c mouse assessed as pathological changes in lungs at 40 mg/kg, ip daily for 14 consecutive days by HE staining based assay; type: organism-based; settings: in vivo, 336 h, time 14 day
[30] = Toxicity in healthy BALB/c mouse assessed as pathological changes in kidneys at 20 mg/kg, ip daily for 14 consecutive days by HE staining based assay; type: organism-based; settings: in vivo, 336 h, time 14 day
MCF7 [31] = test: Induction of cell cycle arrest in human MCF7 cells assessed as accumulation of cells at G2/M phase at 6 uM measured after 48 hrs by PI staining based flow cytometry analysis (reference value: 16.91%); type: functional
[32] = Selectivity index, ratio of IC50 for human MCF-10A cells to IC50 for human MCF7 cells; type: toxicity; settings: MCF-10A cells and MCF7 cells, read-out: Selectivity Index
[33] = Toxicity in healthy BALB/c mouse assessed as pathological changes in heart at 40 mg/kg, ip daily for 14 consecutive days by HE staining based assay; type: organism-based; settings: in vivo, 336 h, time 14 day
MCF7 [34] = test: Induction of cell cycle arrest in human MCF7 cells assessed as accumulation of cells at G0/G1 phase at 3 uM measured after 48 hrs by PI staining based flow cytometry analysis (reference value: 58.42%); type: functional

CC(C)[C@@H](C)/C=C/[C@@H](C)[C@H]1CC[C@@H]2[C@]1(C)CC[C@H]1[C@]23C=C[C@]2(C[C@@H](OC(=O)NCCNC(=O)CN4C(=O)S/C(=C\c5cccc6ccccc56)C4=O)CC[C@]12C)OO3
growth inhibition (GI) (MCF7 [1]): Active | Activity (MCF7 [2]): 13.7% | Activity (MCF7 [3]): 0.9% | viability at 3 µM (MCF7 [4]): 75.7% | Activity (MCF7 [5]): 1.75% | inhibition (MCF7 [6]): Dose-dependent-effect | IC50 (HepG2): 5.55 µM | inhibition in vivo at 30 mg/kg (4T1 [7]): 86.2% | IC50 at 48 h [8]: 32.3 µM | Activity [9]: Non-toxic | Activity (MCF7 [10]): 8.41% | Activity (MCF7 [11]): 44.5% | Activity (MCF7 [12]): 18.98% | Activity (MCF7 [13]): 0.72% | viability at 1 µM (MCF7 [14]): 84.4% | inhibition [15]: Dose-dependent-effect | Activity (MCF7 [16]): 26.2% | Activity [17]: Non-toxic | IC50 (MCF7 [18]): 3.06 µM | Activity [19]: Non-toxic | viability at 6 µM (MCF7 [20]): 53% | Activity [21]: Non-toxic | Activity (MCF7 [22]): 12.9% | Activity (MCF7 [23]): 10.83% | Activity (MCF7 [24]): Dose-dependent-effect | inhibition in vivo at 15 mg/kg (4T1 [25]): 33.5% | Activity (MCF7 [26]): 0.99% | Activity [27]: Non-toxic | Activity (MCF7 [28]): Active | Activity [29]: Non-toxic | Activity [30]: Non-toxic | Activity (MCF7 [31]): 7.27% | selectivity ratio [32]: 10.6 | Activity [33]: Non-toxic | Activity (MCF7 [34]): 80.77%
